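The compound was tested at five concentrations on cells cultured in 96-well plates, with a 48-hour exposure period. GI50: concentration for 50% inhibition of growth.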 Activity calls are given as the source filed them. Cut-off read from the data, not from the text of the source: active = GI50 up to about 1.1 µM and inactive = higher.
Legend:
Experiment in all cases: NCI anticancer screen, dose series, 48 h
SF-268 = system: SF-268
HL-60 = system: HL-60
SW-620 = system: SW-620
LXFL 529 = system: LXFL 529
DLD-1 = system: DLD-1
CCRF-CEM = system: CCRF-CEM
SNB-78 = system: SNB-78
HOP-62 = system: HOP-62
OVCAR-4 = system: OVCAR-4
NCI-H23 = system: NCI-H23
Malme-3M = system: Malme-3M
COLO 205 = system: COLO 205
XF498 = system: XF498
OVCAR-5 = system: OVCAR-5
M14 = system: M14
SNB-19 = system: SNB-19
HOP-92 = system: HOP-92
HCC 2998 = system: HCC 2998
786-0 = system: 786-0
SF-295 = system: SF-295
SK-MEL-2 = system: SK-MEL-2
IGROV-1 = system: IGROV-1
HCT-15 = system: HCT-15
SK-OV-3 = system: SK-OV-3
SN12C = system: SN12C
K562 = system: K562
DMS-273 = system: DMS-273
KM12 = system: KM12
OVCAR-3 = system: OVCAR-3
NCI-H460 = system: NCI-H460
HOP-18 = system: HOP-18
EKVX = system: EKVX
OVCAR-8 = system: OVCAR-8
MOLT-4 = system: MOLT-4
U-251 = system: U-251
LOX IMVI = system: LOX IMVI
A549 = system: A549
M19-MEL = system: M19-MEL
UACC-62 = system: UACC-62
NCI-H226 = system: NCI-H226
A498 = system: A498
ACHN = system: ACHN
SNB-75 = system: SNB-75
TK-10 = system: TK-10
HT-29 = system: HT-29
UO-31 = system: UO-31
SF-539 = system: SF-539
RPMI-8226 = system: RPMI-8226
CAKI-1 = system: CAKI-1
SK-MEL-28 = system: SK-MEL-28
NCI/ADR-RES = system: NCI/ADR-RES
NCI-H522 = system: NCI-H522
SK-MEL-5 = system: SK-MEL-5
KM-20L2 = system: KM-20L2
HCT-116 = system: HCT-116
UACC-257 = system: UACC-257
MCF7 = system: MCF7
RXF 393 = system: RXF 393
DMS-114 = system: DMS-114
SR = system: SR

Structure (SMILES): Nc1nc2c(-c3ccc([N+](=O)[O-])cc3)nnn2c2ccccc12
- GI50 (SF-268): > 100 µM (inactive)
- GI50 (HL-60): > 100 µM (inactive)
- GI50 (SW-620): > 100 µM (inactive)
- GI50 (LXFL 529): > 100 µM (inactive)
- GI50 (DLD-1): > 100 µM (inactive)
- GI50 (CCRF-CEM): > 10 µM (inactive)
- GI50 (SNB-78): 81.1 µM (inactive)
- GI50 (HOP-62): 56.5 µM (inactive)
- GI50 (OVCAR-4): > 100 µM (inactive)
- GI50 (NCI-H23): 37.2 µM (inactive)
- GI50 (Malme-3M): > 100 µM (inactive)
- GI50 (COLO 205): > 100 µM (inactive)
- GI50 (XF498): 78.5 µM (inactive)
- GI50 (OVCAR-5): > 100 µM (inactive)
- GI50 (M14): > 100 µM (inactive)
- GI50 (SNB-19): 17.5 µM (inactive)
- GI50 (HOP-92): > 100 µM (inactive)
- GI50 (HCC 2998): > 100 µM (inactive)
- GI50 (786-0): 84.5 µM (inactive)
- GI50 (SF-295): 62.1 µM (inactive)
- GI50 (SK-MEL-2): > 100 µM (inactive)
- GI50 (IGROV-1): > 100 µM (inactive)
- GI50 (HCT-15): > 100 µM
- GI50 (SK-OV-3): 51.4 µM (inactive)
- GI50 (SN12C): > 100 µM (inactive)
- GI50 (K562): > 100 µM (inactive)
- GI50 (DMS-273): > 100 µM (inactive)
- GI50 (KM12): > 100 µM (inactive)
- GI50 (OVCAR-3): 29.6 µM (inactive)
- GI50 (NCI-H460): > 100 µM (inactive)
- GI50 (HOP-18): > 100 µM (inactive)
- GI50 (EKVX): > 100 µM (inactive)
- GI50 (OVCAR-8): 75.9 µM (inactive)
- GI50 (MOLT-4): > 100 µM (inactive)
- GI50 (U-251): 17.9 µM (inactive)
- GI50 (LOX IMVI): > 100 µM (inactive)
- GI50 (A549): > 100 µM (inactive)
- GI50 (M19-MEL): > 100 µM (inactive)
- GI50 (UACC-62): > 100 µM (inactive)
- GI50 (NCI-H226): > 100 µM (inactive)
- GI50 (A498): > 100 µM (inactive)
- GI50 (ACHN): > 100 µM (inactive)
- GI50 (SNB-75): > 10 µM (inactive)
- GI50 (TK-10): 21 µM (inactive)
- GI50 (HT-29): > 100 µM (inactive)
- GI50 (UO-31): > 100 µM (inactive)
- GI50 (SF-539): > 100 µM (inactive)
- GI50 (RPMI-8226): > 100 µM (inactive)
- GI50 (CAKI-1): > 100 µM (inactive)
- GI50 (SK-MEL-28): > 100 µM (inactive)

Structure (SMILES): COc1cc2c(oc(=O)c3cc(C)cc(OC)c32)c2c(C3OC(C)C(O)C(C)(O)C3O)ccc(O)c12 (stereo not drawn)
- GI50 (SF-268): 0.349 µM (active)
- GI50 (HL-60): 0.045 µM (active)
- GI50 (NCI/ADR-RES): 0.622 µM (active)
- GI50 (NCI-H522): 0.389 µM (active)
- GI50 (SW-620): 0.312 µM (active)
- GI50 (DLD-1): 0.845 µM (active)
- GI50 (CCRF-CEM): 0.0955 µM (active)
- GI50 (SNB-78): 0.755 µM (active)
- GI50 (HOP-62): 0.284 µM (active)
- GI50 (OVCAR-4): 0.467 µM (active)
- GI50 (NCI-H23): 0.223 µM (active)
- GI50 (Malme-3M): 0.673 µM (active)
- GI50 (COLO 205): 0.551 µM (active)
- GI50 (XF498): 0.37 µM (active)
- GI50 (OVCAR-5): 0.681 µM (active)
- GI50 (SNB-19): 0.562 µM (active)
- GI50 (HOP-92): 0.745 µM (active)
- GI50 (HCC 2998): 0.665 µM (active)
- GI50 (SF-295): 0.358 µM (active)
- GI50 (SK-MEL-2): 0.794 µM (active)
- GI50 (IGROV-1): 0.815 µM (active)
- GI50 (HCT-15): 0.662 µM
- GI50 (SK-OV-3): 1.18 µM (inactive)
- GI50 (SN12C): 0.402 µM (active)
- GI50 (K562): 0.277 µM (active)
- GI50 (SK-MEL-5): 0.581 µM (active)
- GI50 (KM-20L2): 0.664 µM (active)
- GI50 (DMS-273): 0.336 µM (active)
- GI50 (KM12): 0.771 µM (active)
- GI50 (OVCAR-3): 0.785 µM (active)
- GI50 (HCT-116): 0.216 µM (active)
- GI50 (NCI-H460): 0.142 µM (active)
- GI50 (HOP-18): 1.41 µM (inactive)
- GI50 (EKVX): 0.776 µM (active)
- GI50 (OVCAR-8): 0.256 µM (active)
- GI50 (MOLT-4): 0.075 µM (active)
- GI50 (U-251): 0.335 µM (active)
- GI50 (LOX IMVI): 0.32 µM (active)
- GI50 (A549): 0.439 µM (active)
- GI50 (UACC-257): 0.731 µM (active)
- GI50 (MCF7): 0.237 µM (active)
- GI50 (M19-MEL): 0.706 µM (active)
- GI50 (UACC-62): 0.414 µM (active)
- GI50 (NCI-H226): 0.376 µM (active)
- GI50 (A498): 0.465 µM (active)
- GI50 (RXF 393): 0.38 µM (active)
- GI50 (DMS-114): 0.315 µM (active)
- GI50 (SNB-75): 0.571 µM (active)
- GI50 (HT-29): 0.463 µM (active)
- GI50 (UO-31): 1.04 µM (active)
- GI50 (SF-539): 0.466 µM (active)
- GI50 (RPMI-8226): 0.454 µM (active)
- GI50 (CAKI-1): 0.432 µM (active)
- GI50 (SK-MEL-28): 0.861 µM (active)

Structure (SMILES): O=c1c(-c2ccccc2)c2oc(c1-c1ccccc1)CS(=O)(=O)CCC2
- GI50 (SF-268): 21.9 µM (inactive)
- GI50 (HL-60): 25.6 µM (inactive)
- GI50 (NCI-H522): 9.98 µM (inactive)
- GI50 (SW-620): 32.7 µM (inactive)
- GI50 (LXFL 529): 17.7 µM (inactive)
- GI50 (DLD-1): 21.6 µM (inactive)
- GI50 (CCRF-CEM): 23.8 µM (inactive)
- GI50 (HOP-62): 42.6 µM (inactive)
- GI50 (NCI-H23): 17.6 µM (inactive)
- GI50 (Malme-3M): 49.4 µM (inactive)
- GI50 (COLO 205): 21 µM (inactive)
- GI50 (XF498): 5.97 µM (inactive)
- GI50 (SNB-19): > 100 µM (inactive)
- GI50 (HOP-92): > 100 µM (inactive)
- GI50 (HCC 2998): > 10 µM (inactive)
- GI50 (786-0): 19.8 µM (inactive)
- GI50 (SF-295): > 100 µM (inactive)
- GI50 (SK-MEL-2): > 100 µM (inactive)
- GI50 (IGROV-1): 45 µM (inactive)
- GI50 (HCT-15): 15.6 µM
- GI50 (SK-OV-3): > 100 µM (inactive)
- GI50 (SN12C): 16.9 µM (inactive)
- GI50 (K562): 31.1 µM (inactive)
- GI50 (SK-MEL-5): 27.7 µM (inactive)
- GI50 (DMS-273): 22.5 µM (inactive)
- GI50 (KM12): 32.2 µM (inactive)
- GI50 (OVCAR-3): 22.6 µM (inactive)
- GI50 (HCT-116): 12.7 µM (inactive)
- GI50 (NCI-H460): 31.6 µM (inactive)
- GI50 (HOP-18): < 0.01 µM (active)
- GI50 (EKVX): > 100 µM (inactive)
- GI50 (OVCAR-8): 36.8 µM (inactive)
- GI50 (MOLT-4): 24.2 µM (inactive)
- GI50 (LOX IMVI): 20.2 µM (inactive)
- GI50 (A549): 57.3 µM (inactive)
- GI50 (UACC-257): 28.8 µM (inactive)
- GI50 (M19-MEL): 17 µM (inactive)
- GI50 (UACC-62): 21.5 µM (inactive)
- GI50 (NCI-H226): 18.5 µM (inactive)
- GI50 (RXF 393): 13.8 µM (inactive)
- GI50 (ACHN): 29 µM (inactive)
- GI50 (DMS-114): 39.5 µM (inactive)
- GI50 (TK-10): 37.5 µM (inactive)
- GI50 (HT-29): 25.5 µM (inactive)
- GI50 (SF-539): 18.2 µM (inactive)
- GI50 (RPMI-8226): 26.9 µM (inactive)
- GI50 (SR): 23.3 µM (inactive)
- GI50 (CAKI-1): 28.8 µM (inactive)
- GI50 (SK-MEL-28): 17.5 µM (inactive)

— ChEMBL document CHEMBL1201862, “PubChem BioAssay data set” (2004)
